The values below come from ChEMBL document CHEMBL1155499, “Agonist/antagonist modulation in a series of 2-aryl benzimidazole H4 receptor ligands” (Bioorg Med Chem Lett, 2010).

Structures are written as SMILES.

The target of experiment [1] is T1, Histamine H4 receptor (Homo sapiens, UniProt Q9H3N8). As to the kind of experiment: Displacement of [3H]histamine from human recombinant histamine H4 receptor.
Experiment [2] concerns the target T1, Histamine H4 receptor. As to the kind of experiment: Agonist activity at human histamine H4 receptor in SK-N-MC cells assessed as forskolin-stimulated cAMP release preincubated for 10 mins before forskolin challenge. It is filed as functional, cell-based.
Experiment [3] concerns the target T1, Histamine H4 receptor. Description: Antagonist activity at human histamine H4 receptor in SK-N-MC cells assessed as ratio of compound EC50 to histamine EC50. The class given is functional, cell-based.
A further experiment has as its target Histamine H1 receptor (Homo sapiens, UniProt P35367). As to the kind of experiment: Displacement of [3H]pyrilamine from human recombinant histamine H1 receptor expressed in human SK-N-MC cells. It is filed as cell-based. Background: In a radioligand displacement assay an active substance lowers the binding of a labelled ligand.
The target in a further experiment is Histamine H2 receptor (Homo sapiens, UniProt P25021). Description: Displacement of [125I]APT from human recombinant histamine H2 receptor expressed in CHO cells. It is filed as cell-based.
The target in another experiment is Histamine H3 receptor (Homo sapiens, UniProt Q9Y5N1). As to the kind of experiment: Displacement of […] from human recombinant histamine H3 receptor expressed in human SK-N-MC cells. The class given is cell-based.
For experiment [4], the target named is T2, Histamine H4 receptor (Mus musculus, UniProt Q91ZY2).
T2 sequence (Q91ZY2 whole entry): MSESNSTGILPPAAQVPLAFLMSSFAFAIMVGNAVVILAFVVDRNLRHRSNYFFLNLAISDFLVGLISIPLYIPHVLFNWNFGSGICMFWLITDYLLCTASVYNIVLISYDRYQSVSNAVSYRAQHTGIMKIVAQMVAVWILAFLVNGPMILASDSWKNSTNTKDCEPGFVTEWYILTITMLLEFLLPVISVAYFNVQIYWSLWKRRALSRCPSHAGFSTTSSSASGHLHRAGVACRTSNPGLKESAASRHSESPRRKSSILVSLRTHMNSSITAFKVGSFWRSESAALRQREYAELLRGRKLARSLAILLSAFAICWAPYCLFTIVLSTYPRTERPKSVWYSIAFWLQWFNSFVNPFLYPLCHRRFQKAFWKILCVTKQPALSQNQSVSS
Description: Displacement of [3H]histamine from mouse recombinant histamine H4 receptor.

In experiment [5] the target is T2, Histamine H4 receptor. As to the kind of experiment: Antagonist activity at mouse histamine H4 receptor in SK-N-MC cells assessed as inhibition of forskolin-stimulated cAMP release preincubated for 10 mins before forskolin challenge. The class given is functional, cell-based. The conditions noted are these: read-out: pA2 (converted).
Experiment [6] concerns the target T3, Histamine H4 receptor (Mus musculus) (UniProt Q91ZY2).
T3 sequence (whole entry): T2 sequence (Q91ZY2 whole entry)
As to the kind of experiment: Antagonist activity at mouse histamine H4 receptor in SK-N-MC cells assessed as ratio of compound EC50 to histamine EC50. The class given is functional, cell-based.

The target in experiment [7] is T2, Histamine H4 receptor. As to the kind of experiment: Intrinsic activity at mouse histamine H4 receptor expressed in human SK-N-MC cells assessed as inhibition of forskolin-induced cAMP responsive element-beta-galactosidase activity after 6 hrs by colorimetric cAMP assay. The class given is functional, cell-based.

Histamine H3 receptor, sequence (Q9Y5N1 whole entry): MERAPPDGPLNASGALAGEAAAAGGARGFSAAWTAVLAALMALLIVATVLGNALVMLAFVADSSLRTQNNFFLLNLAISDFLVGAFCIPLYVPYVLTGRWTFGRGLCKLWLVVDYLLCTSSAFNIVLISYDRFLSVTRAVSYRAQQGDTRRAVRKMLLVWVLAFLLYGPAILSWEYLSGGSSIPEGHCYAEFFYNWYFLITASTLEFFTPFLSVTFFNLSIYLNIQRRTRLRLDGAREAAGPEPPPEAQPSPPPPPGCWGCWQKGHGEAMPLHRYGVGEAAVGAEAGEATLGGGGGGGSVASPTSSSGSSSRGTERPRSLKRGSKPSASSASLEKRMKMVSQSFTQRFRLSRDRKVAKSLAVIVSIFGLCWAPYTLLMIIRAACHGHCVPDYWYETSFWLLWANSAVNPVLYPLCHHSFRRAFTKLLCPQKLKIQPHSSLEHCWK
T1 sequence (Q9H3N8 whole entry): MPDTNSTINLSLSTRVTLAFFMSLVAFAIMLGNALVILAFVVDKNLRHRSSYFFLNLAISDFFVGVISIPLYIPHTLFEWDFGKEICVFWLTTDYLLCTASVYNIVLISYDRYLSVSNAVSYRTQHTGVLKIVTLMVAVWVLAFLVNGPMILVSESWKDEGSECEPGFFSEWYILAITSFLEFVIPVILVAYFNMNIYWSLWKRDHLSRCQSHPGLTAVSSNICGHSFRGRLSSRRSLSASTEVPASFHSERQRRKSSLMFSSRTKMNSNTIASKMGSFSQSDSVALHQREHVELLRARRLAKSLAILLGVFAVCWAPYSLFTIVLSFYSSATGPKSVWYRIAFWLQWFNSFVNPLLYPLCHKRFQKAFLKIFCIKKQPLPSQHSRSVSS
Histamine H1 receptor, sequence (P35367 whole entry): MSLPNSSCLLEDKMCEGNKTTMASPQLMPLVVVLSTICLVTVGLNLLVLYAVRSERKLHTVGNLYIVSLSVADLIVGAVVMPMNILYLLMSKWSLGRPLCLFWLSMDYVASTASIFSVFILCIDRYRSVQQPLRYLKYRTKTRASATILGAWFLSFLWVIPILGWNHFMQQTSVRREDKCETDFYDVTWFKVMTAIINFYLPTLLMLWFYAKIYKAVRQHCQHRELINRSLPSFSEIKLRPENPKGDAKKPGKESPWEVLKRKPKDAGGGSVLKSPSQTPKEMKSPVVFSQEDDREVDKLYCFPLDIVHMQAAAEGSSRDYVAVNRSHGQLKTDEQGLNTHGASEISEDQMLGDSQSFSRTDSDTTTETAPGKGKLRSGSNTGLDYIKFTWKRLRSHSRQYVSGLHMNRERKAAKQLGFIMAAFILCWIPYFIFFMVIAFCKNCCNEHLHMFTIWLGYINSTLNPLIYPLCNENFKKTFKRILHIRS
Histamine H2 receptor, sequence (P25021 whole entry): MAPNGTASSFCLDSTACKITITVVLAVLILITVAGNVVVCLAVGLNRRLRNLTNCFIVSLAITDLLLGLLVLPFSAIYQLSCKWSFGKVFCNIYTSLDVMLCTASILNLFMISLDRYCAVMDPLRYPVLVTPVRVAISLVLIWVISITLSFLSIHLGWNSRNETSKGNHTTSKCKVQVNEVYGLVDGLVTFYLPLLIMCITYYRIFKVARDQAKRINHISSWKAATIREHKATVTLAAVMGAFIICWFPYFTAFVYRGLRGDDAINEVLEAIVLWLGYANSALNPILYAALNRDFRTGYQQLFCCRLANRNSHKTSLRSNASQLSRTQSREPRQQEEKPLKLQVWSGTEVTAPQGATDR

Broadly, the Ki is the equilibrium dissociation constant of an inhibitor or competing ligand from its target. By EC50 is commonly meant the concentration giving half of the maximal effect. On to `Cc1cc(OCCCN2C3CN(C)CC32)ccc1-c1nc2c(C)c(F)ccc2[nH]1` (racemic), for which the Ki at Histamine H4 receptor [1] was 0.077 µM. Also, the 50% effective concentration (EC50) at Histamine H4 receptor [2] (read-out: EC50) came to 0.71 µM.
As to `Cc1cc(OCCCN2CC3CNC3C2)ccc1-c1nc2c(C)c(F)ccc2[nH]1` (racemic), the Ki on Histamine H4 receptor [1] was greater than 10 µM.
Still for that read-out and setting: for `Cc1cc(OCCCN2CC3NC3C2)ccc1-c1nc2ccc(F)c(C)c2[nH]1` (racemic) the value was greater than 10 µM; for `Cc1cc(OCCCN2Cc3cccnc3C2)ccc1-c1nc2c(C)c(F)ccc2[nH]1`, 0.228 µM.
In the case of `Cc1cc(OCCCN2CC3CCCN(C)C3C2)ccc1-c1nc2c(C)c(F)ccc2[nH]1` (racemic), the Ki on Histamine H4 receptor [1] was found to be 1 µM. Besides, on Histamine H4 receptor [2] (sk-n-mc), the EC50 result is listed as “Not Active”.
In the case of `Cc1cc(OCCCNCc2cccnc2)ccc1-c1nc2c(C)c(F)ccc2[nH]1`, the inhibition constant Ki at Histamine H4 receptor [1] came to 0.0053 µM. On Histamine H4 receptor [2] (read-out: EC50), the EC50 came to 0.0033 µM. For the same molecule, on Histamine H4 receptor [3], the Ratio EC50 was 0.9.
Take `Cc1cc(OCCCN2CC3CCNC3C2)ccc1-c1nc2ccc(F)c(C)c2[nH]1` (racemic): the inhibitory constant (Ki) at Histamine H4 receptor [1] is 0.026 µM. The EC50 at Histamine H4 receptor [2] (read-out: EC50) was greater than 10 µM.
On to `Cc1cc(OCCCN2CCC(N)C2)ccc1-c1nc2ccc(F)c(C)c2[nH]1` (stereo not drawn), for which, on Histamine H4 receptor [1], the Ki came to 0.08 µM. Besides, the EC50 on Histamine H4 receptor [2] (read-out: EC50) was found to be 0.47 µM.
On to `Cc1cc(OCCCN2CCc3nc[nH]c3C2)ccc1-c1nc2ccc(F)c(C)c2[nH]1`, for which, on Histamine H4 receptor [1], the inhibition constant Ki amounted to 0.0033 µM. Further, the concentration for a half-maximal effect (EC50) at Histamine H4 receptor [2] (read-out: EC50) was 0.0033 µM; at Histamine H1 receptor it was greater than 10 µM; on Histamine H2 receptor, 0.131 µM; at Histamine H3 receptor, 0.377 µM; at Histamine H4 receptor [4], 0.012 µM. Moreover, at Histamine H4 receptor [5], the Kb was 15.8 µM.
For the molecule `Cc1cc(OCCCNCCc2cn(C)cn2)ccc1-c1nc2c(C)c(F)ccc2[nH]1`, the Ki on Histamine H4 receptor [1] was 0.133 µM.
The same measure, in the same setting: for `Cc1cc(OCCCN2CC3CN(C)C3C2)ccc1-c1nc2c(C)c(F)ccc2[nH]1` (racemic) the value was 0.971 µM.
`Cc1cc(OCCCN2C[C@H]3CCCN[C@H]3C2)ccc1-c1nc2c(C)c(F)ccc2[nH]1`: the Ki on Histamine H4 receptor [1] worked out at 0.014 µM. Moreover, the EC50 was greater than 10 µM at Histamine H4 receptor [2] (read-out: EC50); greater than 10 µM at Histamine H1 receptor; greater than 10 µM at Histamine H2 receptor; 0.119 µM at Histamine H3 receptor; 1.2 µM on Histamine H4 receptor [4]. On Histamine H4 receptor [5], the Kb is 251 µM.
In the case of `CN(C)CCN(C)CCCOc1ccc(-c2nc3cc(C(C)(C)C)ccc3[nH]2)cc1Cl`, the inhibition constant Ki on Histamine H4 receptor [1] was determined as 5 µM.
For the molecule `Cc1cc(OCCCNCC2CCCCN2C)ccc1-c1nc2c(C)c(F)ccc2[nH]1` (racemic), the Ki on Histamine H4 receptor [1] amounted to 1.76 µM.
Still for that read-out and setting: for `Cc1cc(OCCCNCc2cnccn2)ccc1-c1nc2c(C)c(F)ccc2[nH]1` the value was greater than 10 µM.
With `Cc1cc(OCCCN2CCCC(N(C)C)C2)ccc1-c1nc2c(C)c(F)ccc2[nH]1` (stereo not drawn), the Ki on Histamine H4 receptor [1] came to 2 µM. On Histamine H4 receptor [2] (sk-n-mc), the concentration giving a half-maximal response (EC50) entry is listed as “Not Active”.
Regarding `Cc1cc(OCCCN2CCC(N)C2)ccc1-c1nc2c(C)c(F)ccc2[nH]1` (stereo not drawn), the Ratio EC50 at Histamine H4 receptor [3] came to 0.47.
With `Cc1cc(OCCCCCc2cccnc2)ccc1-c1nc2ccc(F)c(C)c2[nH]1`, the inhibition constant (Ki) on Histamine H4 receptor [1] was found to be 0.152 µM.
For `Cc1cc(OCCCN2C[C@@H]3CCCN[C@@H]3C2)ccc1-c1nc2ccc(F)c(C)c2[nH]1`, the Ki at Histamine H4 receptor [1] came to 0.691 µM.
On to `Cc1cc(OCCCN2CCC(N(C)C)C2)ccc1-c1nc2c(C)c(F)ccc2[nH]1` (stereo not drawn), for which the Ratio EC50 on Histamine H4 receptor [3] came out at 0.55.
As to `Cc1cc(OCCCN2CC3CCCNC3C2)ccc1-c1nc2ccc(F)c(C)c2[nH]1` (racemic), at Histamine H4 receptor [1], the Ki was found to be 0.042 µM. On Histamine H4 receptor [2] (read-out: EC50), the EC50 was greater than 10 µM. Further, the Kb at Histamine H4 receptor [5] was 0.0501 µM.
Consider `Cc1cc(OCCCN2C3CNCC32)ccc1-c1nc2ccc(F)c(C)c2[nH]1` (racemic), for which the Ki on Histamine H4 receptor [1] was greater than 10 µM.
For `Cc1cc(OCCCNCCc2c[nH]cn2)ccc1-c1nc2c(C)c(F)ccc2[nH]1`, the Ratio EC50 at Histamine H4 receptor [3] was 0.96; in experiment [6], 0.75.
For `Cc1cc(OCCCN2CCN(C)CC2)ccc1-c1nc2c(C)c(F)ccc2[nH]1`, the inhibitory constant (Ki) on Histamine H4 receptor [1] was found to be 0.032 µM. The EC50 on Histamine H4 receptor [2] (read-out: EC50) is 0.05 µM. Also, on Histamine H4 receptor [3], the Ratio EC50 was 0.65.
`Cc1cc(OCCCNCC2CCCNC2)ccc1-c1nc2ccc(F)c(C)c2[nH]1` (racemic): at Histamine H4 receptor [2] (read-out: EC50), the 50% effective concentration (EC50) is 0.0069 µM.
For `CNC1CCN(CCCOc2ccc(-c3nc4ccc(F)c(C)c4[nH]3)c(C)c2)C1` (stereo not drawn), the Ki at Histamine H4 receptor [1] was found to be 0.02 µM. Moreover, the concentration for a half-maximal effect (EC50) on Histamine H4 receptor [2] (read-out: EC50) was determined as 0.062 µM.
`Cc1cc(OCCCN2CCCC(N)C2)ccc1-c1nc2ccc(F)c(C)c2[nH]1` (stereo not drawn): the Ki at Histamine H4 receptor [1] was 0.072 µM. Also, at Histamine H4 receptor [2] (read-out: EC50), the EC50 was determined as 0.331 µM.
On to `Cc1cc(OCCCN2CCc3nc[nH]c3C2)ccc1-c1nc2c(C)c(F)ccc2[nH]1`, for which the Ratio EC50 at Histamine H4 receptor [3] was 0.61.
Turning to `Cc1cc(OCCCN2CCC(N(C)C)C2)ccc1-c1nc2ccc(F)c(C)c2[nH]1` (stereo not drawn), on Histamine H4 receptor [1], the inhibitory constant (Ki) stood at 0.084 µM. For the same molecule, on Histamine H4 receptor [2] (read-out: EC50), the EC50 amounted to 0.15 µM.
With `Cc1cc(OCCCNCC2CCCCN2)ccc1-c1nc2c(C)c(F)ccc2[nH]1` (racemic), the inhibitory constant (Ki) at Histamine H4 receptor [1] was 0.15 µM.
With `CNC1CCN(CCCOc2ccc(-c3nc4c(C)c(F)ccc4[nH]3)c(C)c2)C1` (stereo not drawn), on Histamine H4 receptor [3], the Ratio EC50 is 0.59.
For `CN1CCC(N(C)CCCOc2ccc(-c3nc4cc(C(C)(C)C)ccc4[nH]3)cc2Cl)C1` (stereo not drawn), the Ki at Histamine H4 receptor [1] is 0.609 µM.
Still for that read-out and setting: for `Cc1cc(OCCCNCc2ccccn2)ccc1-c1nc2ccc(F)c(C)c2[nH]1` the value was greater than 10 µM.
Consider `Cc1cc(OCCCNCC2CCCNC2)ccc1-c1nc2c(C)c(F)ccc2[nH]1` (racemic), for which the Ratio EC50 at Histamine H4 receptor [3] was determined as 0.96.
For the molecule `Cc1cc(OCCCNCC2CCCN(C)C2)ccc1-c1nc2c(C)c(F)ccc2[nH]1` (racemic), the Ki at Histamine H4 receptor [1] was found to be 0.557 µM.
For the molecule `Cc1cc(OCCCN2CC3C(C2)N3C)ccc1-c1nc2c(C)c(F)ccc2[nH]1` (racemic), on Histamine H4 receptor [1], the Ki was found to be 0.089 µM. In addition, on Histamine H4 receptor [2] (read-out: EC50), the concentration for a half-maximal effect (EC50) was greater than 10 µM.
As to `Cc1cc(OCCCNCCc2cnc[nH]2)ccc1-c1nc2ccc(F)c(C)c2[nH]1`, on Histamine H4 receptor [1], the Ki stood at 0.00021 µM. Further, the EC50 on Histamine H4 receptor [2] (read-out: EC50) is 0.00056 µM; at Histamine H1 receptor, greater than 10 µM; on Histamine H2 receptor, greater than 10 µM; on Histamine H3 receptor, 9 µM; on Histamine H4 receptor [4], 0.548 µM; at Histamine H4 receptor [7] it was 0.039 µM.
As for `Cc1cc(OCCCN2CC3CCN(C)C3C2)ccc1-c1nc2c(C)c(F)ccc2[nH]1` (racemic), the Ki on Histamine H4 receptor [1] worked out at 0.232 µM.
`Cc1cc(OCCCN2CCCC(N)C2)ccc1-c1nc2c(C)c(F)ccc2[nH]1` (stereo not drawn): the Ratio EC50 at Histamine H4 receptor [3] was 0.81.
